Experimental data published in PubChem BioAssay (NCI).
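Five concentrations, 48 hours, 96-well plates. TGI denotes the concentration required for complete inhibition of growth.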

Experiments:
Test in all cases: DTP human tumour cell line panel, 48 h
MCF7 breast = tested on: MCF7 breast
BT-549 breast = tested on: BT-549 breast
UACC-257 melanoma = tested on: UACC-257 melanoma
MDA-N = tested on: MDA-N
LOX IMVI melanoma = tested on: LOX IMVI melanoma
COLO 205 colon = tested on: COLO 205 colon
SK-MEL-28 melanoma = tested on: SK-MEL-28 melanoma
HOP-62 NSCLC = tested on: HOP-62 NSCLC
RPMI-8226 leukemia = tested on: RPMI-8226 leukemia
U251 CNS = tested on: U251 CNS
NCI-H226 lung = tested on: NCI-H226 lung
CCRF-CEM leukemia = tested on: CCRF-CEM leukemia
SNB-75 CNS = tested on: SNB-75 CNS
T-47D breast = tested on: T-47D breast
HL-60(TB) leukemia = tested on: HL-60(TB) leukemia
OVCAR-3 ovarian = tested on: OVCAR-3 ovarian
M14 melanoma = tested on: M14 melanoma
UACC-62 melanoma = tested on: UACC-62 melanoma
EKVX NSCLC = tested on: EKVX NSCLC
IGROV1 ovarian = tested on: IGROV1 ovarian
ACHN renal = tested on: ACHN renal
786-0 renal = tested on: 786-0 renal
HS 578T breast = tested on: HS 578T breast
OVCAR-8 ovarian = tested on: OVCAR-8 ovarian
SK-MEL-5 melanoma = tested on: SK-MEL-5 melanoma
KM12 colon = tested on: KM12 colon
A549 NSCLC = tested on: A549 NSCLC
DU-145 prostate = tested on: DU-145 prostate
NCI-H23 lung = tested on: NCI-H23 lung
OVCAR-4 ovarian = tested on: OVCAR-4 ovarian
MDA-MB-435 = tested on: MDA-MB-435
SK-OV-3 ovarian = tested on: SK-OV-3 ovarian
NCI/ADR-RES ovarian = tested on: NCI/ADR-RES ovarian
HCC-2998 colon = tested on: HCC-2998 colon
HCT-15 colon = tested on: HCT-15 colon
SW-620 colon = tested on: SW-620 colon
RXF 393 renal = tested on: RXF 393 renal
SF-295 CNS = tested on: SF-295 CNS
NCI-H460 lung = tested on: NCI-H460 lung
SK-MEL-2 melanoma = tested on: SK-MEL-2 melanoma
TK-10 renal = tested on: TK-10 renal
MDA-MB-231 breast = tested on: MDA-MB-231 breast
HT29 colon = tested on: HT29 colon
SNB-19 CNS = tested on: SNB-19 CNS
OVCAR-5 ovarian = tested on: OVCAR-5 ovarian
CAKI-1 renal = tested on: CAKI-1 renal
HCT-116 colon = tested on: HCT-116 colon
MOLT-4 leukemia = tested on: MOLT-4 leukemia
SF-539 CNS = tested on: SF-539 CNS
SF-268 CNS = tested on: SF-268 CNS
K-562 leukemia = tested on: K-562 leukemia
SN12C renal = tested on: SN12C renal
NCI-H522 lung = tested on: NCI-H522 lung
MALME-3M melanoma = tested on: MALME-3M melanoma
PC-3 prostate = tested on: PC-3 prostate
SR leukemia = tested on: SR leukemia
A498 renal = tested on: A498 renal
UO-31 renal = tested on: UO-31 renal
HOP-92 NSCLC = tested on: HOP-92 NSCLC

Structure (SMILES): NC(=S)NS(=O)(=O)c1ccc(Cl)cc1
- TGI (MCF7 breast): > 100 µM
- TGI (BT-549 breast): > 100 µM
- TGI (UACC-257 melanoma): > 100 µM
- TGI (MDA-N): > 100 µM
- TGI (LOX IMVI melanoma): > 100 µM
- TGI (COLO 205 colon): > 100 µM
- TGI (SK-MEL-28 melanoma): > 100 µM
- TGI (HOP-62 NSCLC): > 100 µM
- TGI (RPMI-8226 leukemia): > 100 µM
- TGI (U251 CNS): > 100 µM
- TGI (NCI-H226 lung): > 100 µM
- TGI (CCRF-CEM leukemia): > 100 µM
- TGI (SNB-75 CNS): > 100 µM
- TGI (T-47D breast): > 100 µM
- TGI (HL-60(TB) leukemia): > 100 µM
- TGI (OVCAR-3 ovarian): > 100 µM
- TGI (M14 melanoma): > 100 µM
- TGI (UACC-62 melanoma): > 100 µM
- TGI (EKVX NSCLC): > 100 µM
- TGI (IGROV1 ovarian): > 100 µM
- TGI (ACHN renal): > 100 µM
- TGI (786-0 renal): > 100 µM
- TGI (HS 578T breast): > 100 µM
- TGI (OVCAR-8 ovarian): > 100 µM
- TGI (SK-MEL-5 melanoma): > 100 µM
- TGI (KM12 colon): > 100 µM
- TGI (A549 NSCLC): > 100 µM
- TGI (DU-145 prostate): > 100 µM
- TGI (NCI-H23 lung): > 100 µM
- TGI (OVCAR-4 ovarian): > 100 µM
- TGI (MDA-MB-435): > 100 µM
- TGI (SK-OV-3 ovarian): > 100 µM
- TGI (NCI/ADR-RES ovarian): > 100 µM
- TGI (HCC-2998 colon): > 100 µM
- TGI (HCT-15 colon): > 100 µM
- TGI (SW-620 colon): > 100 µM
- TGI (RXF 393 renal): > 100 µM
- TGI (SF-295 CNS): > 100 µM
- TGI (NCI-H460 lung): > 100 µM
- TGI (SK-MEL-2 melanoma): > 100 µM
- TGI (TK-10 renal): > 100 µM
- TGI (MDA-MB-231 breast): > 100 µM
- TGI (HT29 colon): > 100 µM
- TGI (SNB-19 CNS): > 100 µM
- TGI (OVCAR-5 ovarian): > 100 µM
- TGI (CAKI-1 renal): > 100 µM
- TGI (HCT-116 colon): > 100 µM
- TGI (MOLT-4 leukemia): > 100 µM
- TGI (SF-539 CNS): > 100 µM
- TGI (SF-268 CNS): > 100 µM
- TGI (K-562 leukemia): > 100 µM
- TGI (SN12C renal): > 100 µM
- TGI (NCI-H522 lung): > 100 µM
- TGI (MALME-3M melanoma): > 100 µM
- TGI (PC-3 prostate): > 100 µM

Structure (SMILES): O=c1[nH]c2ccc(C(F)(F)F)cc2nc1C(F)(F)F
- TGI (MCF7 breast): 80.3 µM
- TGI (BT-549 breast): 89.8 µM
- TGI (SR leukemia): > 100 µM
- TGI (UACC-257 melanoma): 64.4 µM
- TGI (MDA-N): > 100 µM
- TGI (LOX IMVI melanoma): 60.8 µM
- TGI (COLO 205 colon): 39.8 µM
- TGI (SK-MEL-28 melanoma): > 100 µM
- TGI (HOP-62 NSCLC): 55.5 µM
- TGI (RPMI-8226 leukemia): > 100 µM
- TGI (U251 CNS): > 100 µM
- TGI (NCI-H226 lung): 89 µM
- TGI (CCRF-CEM leukemia): 42.7 µM
- TGI (SNB-75 CNS): 48 µM
- TGI (T-47D breast): 45.9 µM
- TGI (OVCAR-3 ovarian): 41.8 µM
- TGI (M14 melanoma): > 100 µM
- TGI (UACC-62 melanoma): > 100 µM
- TGI (A498 renal): 87.5 µM
- TGI (EKVX NSCLC): > 100 µM
- TGI (IGROV1 ovarian): 95.3 µM
- TGI (ACHN renal): > 100 µM
- TGI (786-0 renal): > 100 µM
- TGI (OVCAR-8 ovarian): 77 µM
- TGI (SK-MEL-5 melanoma): 35.5 µM
- TGI (KM12 colon): 57.7 µM
- TGI (A549 NSCLC): > 100 µM
- TGI (DU-145 prostate): > 100 µM
- TGI (UO-31 renal): 75.6 µM
- TGI (NCI-H23 lung): 46.9 µM
- TGI (OVCAR-4 ovarian): > 100 µM
- TGI (MDA-MB-435): 78.8 µM
- TGI (SK-OV-3 ovarian): 85.7 µM
- TGI (NCI/ADR-RES ovarian): 70.7 µM
- TGI (HCC-2998 colon): > 100 µM
- TGI (HCT-15 colon): > 100 µM
- TGI (HOP-92 NSCLC): 30.2 µM
- TGI (RXF 393 renal): 36.3 µM
- TGI (SF-295 CNS): > 100 µM
- TGI (NCI-H460 lung): > 100 µM
- TGI (SK-MEL-2 melanoma): 43.1 µM
- TGI (TK-10 renal): > 100 µM
- TGI (MDA-MB-231 breast): 96.5 µM
- TGI (HT29 colon): > 100 µM
- TGI (SNB-19 CNS): > 100 µM
- TGI (OVCAR-5 ovarian): > 100 µM
- TGI (CAKI-1 renal): 82.1 µM
- TGI (HCT-116 colon): 60.7 µM
- TGI (MOLT-4 leukemia): 63.8 µM
- TGI (SF-539 CNS): 64.2 µM
- TGI (SF-268 CNS): > 100 µM
- TGI (K-562 leukemia): > 100 µM
- TGI (SN12C renal): 87.6 µM
- TGI (NCI-H522 lung): 47.6 µM
- TGI (MALME-3M melanoma): 74.2 µM
- TGI (PC-3 prostate): 62.7 µM
